# Experiments:
# [1] = molecular target: T1, recombinant human HMGB1 protein (full-length) (Homo sapiens, UniProt P09429); assay: gel-based competition with IAA-yne labelling, click TAMRA fluorescence; format: binding; settings: covalent; Cys 106 of disulfide form or Cys 23, 45, 106 of fully reduced form, also other sites; PBS
# T1 construct: full-length recombinant protein, commercial (Abcam); disulfide form or DTT-reduced
# T1 sequence (P09429 1-215): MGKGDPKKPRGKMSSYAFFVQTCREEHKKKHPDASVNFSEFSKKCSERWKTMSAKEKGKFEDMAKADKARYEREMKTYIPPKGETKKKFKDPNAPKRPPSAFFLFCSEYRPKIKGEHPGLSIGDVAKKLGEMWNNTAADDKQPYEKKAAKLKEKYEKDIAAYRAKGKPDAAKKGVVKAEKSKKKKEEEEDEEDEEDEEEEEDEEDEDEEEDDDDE
# HMGB1 A box [2] = molecular target: T2, HMGB1 A box (Homo sapiens, UniProt P09429); assay: as above; format: binding; settings: covalent; blocks IAA-yne labelling of Cys; PBS
# T2 construct: A box domain, residues 1-89, N-terminal 6-His tag, modified pET-24d, E. coli BL21
# T2 sequence (P09429 1-89): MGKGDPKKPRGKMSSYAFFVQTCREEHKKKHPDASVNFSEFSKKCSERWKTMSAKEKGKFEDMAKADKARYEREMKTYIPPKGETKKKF
# HMGB1 B box [3] = molecular target: T3, HMGB1 B box (Homo sapiens, UniProt P09429); assay: as above; format: binding; settings: covalent; blocks IAA-yne labelling of Cys; PBS
# T3 construct: B box domain, residues 90-175, N-terminal 6-His tag, modified pET-24d, E. coli BL21
# T3 sequence (P09429 90-175): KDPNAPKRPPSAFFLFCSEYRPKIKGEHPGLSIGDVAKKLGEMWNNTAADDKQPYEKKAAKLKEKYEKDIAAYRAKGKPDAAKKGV
# [4] = molecular target: T4, HMGB1 (primary rat cortical neurons) (Rattus norvegicus, UniProt P63159); assay: CETSA in neuron lysate, Western blot; competition with cel-p pull-down; format: biochemical; settings: 20 μM cel, 1 h, 37-82 °C (CETSA); 8 × cel in pull-down
# T4 construct: endogenous full-length protein in living primary cortical neurons or their lysate
# T4 sequence (P63159 2-215): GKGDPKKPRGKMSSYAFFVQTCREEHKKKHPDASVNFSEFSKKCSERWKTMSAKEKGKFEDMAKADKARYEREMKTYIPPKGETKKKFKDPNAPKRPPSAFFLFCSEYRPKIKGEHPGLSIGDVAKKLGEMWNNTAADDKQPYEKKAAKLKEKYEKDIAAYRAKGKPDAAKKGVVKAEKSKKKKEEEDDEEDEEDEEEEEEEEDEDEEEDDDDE
# HMGB1 B box [5] = molecular target: T3, HMGB1 B box; assay: in-gel fluorescence labelling by probe, click TAMRA azide; format: binding; settings: labelled compound; labelling in presence of IAA; PBS
# HMGB1 A box [6] = molecular target: T2, HMGB1 A box; assay: as above; format: binding; settings: labelled compound; labelling in presence of IAA; PBS
# [7] = molecular target: T4, HMGB1 (primary rat cortical neurons); assay: probe pull-down, TMT LC-MS/MS and Western blot; format: cell-based; settings: labelled compound; 4 μM cel-p, 4 h, living neurons, with or without OGD
smiles,measurement,setting,value
"CC1=C(O)C(=O)C=C2C1=CC=C1[C@@]2(C)CC[C@@]2(C)[C@@H]3C[C@](C)(C(=O)O)CC[C@]3(C)CC[C@]12C [cel, celastrol]","gel-based competition with IAA-yne labelling, click TAMRA fluorescence",[1],Cel almost completely competed for the binding of IAA-yne to HMGB1 or DTT reduced HMGB1
same,"gel-based competition with IAA-yne labelling, click TAMRA fluorescence",HMGB1 A box [2],Cel also almost completely blocked the binding of IAA-yne to the Cys group
same,"gel-based competition with IAA-yne labelling, click TAMRA fluorescence",HMGB1 B box [3],Cel also almost completely blocked the binding of IAA-yne to the Cys group
same,"CETSA in neuron lysate, Western blot; competition with cel-p pull-down",[4],The CETSA results also proved the direct binding of cel and HMGB1
C#CCNC(=O)[C@]1(C)CC[C@]2(C)CC[C@]3(C)C4=CC=C5C(=CC(=O)C(O)=C5C)[C@]4(C)CC[C@@]3(C)[C@@H]2C1 [cel-p],"in-gel fluorescence labelling by probe, click TAMRA azide",HMGB1 B box [5],The binding of cel-p to the A and B boxes could not be blocked by IAA
same,"in-gel fluorescence labelling by probe, click TAMRA azide",HMGB1 A box [6],The binding of cel-p to the A and B boxes could not be blocked by IAA
same,"probe pull-down, TMT LC-MS/MS and Western blot",[7],could completely compete the binding of cel-p to HMGB1

# — paper PMC8353826, “Celastrol exerts a neuroprotective effect by directly binding to HMGB1 protein in cerebral ischemia–reperfusion” (Journal of Neuroinflammation, 2021)
